Experimental data published in PubChem BioAssay (NCI).
Values joined by “and” are separate entries in the source; they are usually repeats but may differ in a detail not shown here. Equal entries are not always repeated.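 Where inhibition never reached the appropriate level, the endpoint shown equals the highest concentration tested. Otherwise, values were interpolated linearly from a five-concentration, 48-hour dose response in 96-well plates. GI50 = concentration required for 50% inhibition of growth. TGI denotes the concentration required for complete inhibition of growth.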

How the values were obtained:
Assay in all cases: NCI anticancer screen, dose series, 48 h
ACHN renal = system: ACHN renal
COLO 205 colon = system: COLO 205 colon
DU-145 prostate = system: DU-145 prostate
HCC-2998 colon = system: HCC-2998 colon
HCT-15 colon = system: HCT-15 colon
NCI-H226 lung = system: NCI-H226 lung
OVCAR-4 ovarian = system: OVCAR-4 ovarian
SNB-19 CNS = system: SNB-19 CNS
T-47D breast = system: T-47D breast
HCT-116 colon = system: HCT-116 colon

Compound	TGI (ACHN renal)	TGI (COLO 205 colon)	TGI (DU-145 prostate)	TGI (HCC-2998 colon)	TGI (HCT-15 colon)	TGI (NCI-H226 lung)	TGI (OVCAR-4 ovarian)	TGI (SNB-19 CNS)	TGI (T-47D breast)	GI50 (ACHN renal)	GI50 (COLO 205 colon)	GI50 (DU-145 prostate)	GI50 (HCC-2998 colon)	GI50 (HCT-116 colon)	TGI (HCT-116 colon)	GI50 (HCT-15 colon)	GI50 (NCI-H226 lung)	GI50 (OVCAR-4 ovarian)	GI50 (T-47D breast)	GI50 (SNB-19 CNS)
O=P(Oc1ccc(Cl)cc1)(Oc1ccc(Cl)cc1)N1CC1	> 10 µM	> 10 µM	> 10 µM	> 10 µM	> 10 µM	> 10 µM	> 10 µM	> 10 µM	> 10 µM											
O=C(/C=C/c1ccc(C(F)(F)F)cc1)c1ccc(Nc2nc(NCCO)nc(NCCO)n2)cc1	15.6 µM	4.22 µM	14.3 µM	11.2 µM	11.3 µM	9.65 µM	20.8 µM		11.8 µM	4.38 µM	2.05 µM	4.03 µM	3.25 µM	1.79 µM	3.9 µM	3.07 µM	2.62 µM	4.29 µM	2.51 µM	
CCC1C(C)c2c([nH]c3ccccc23)C2C(=O)N(c3ccccc3)C(=O)C21 (stereo not drawn)	66.5 µM	30.7 µM		28.9 µM	31.2 µM		38 µM													
COc1ccc(C2OC(=O)c3c2ccc2ccccc32)c(C)c1 (stereo not drawn)	> 100 µM	21.9 µM		3.34 µM	19.9 µM	67.6 µM		> 100 µM							> 100 µM					
C/C1=C\[C@H](C)C[C@H](C)OC(=O)C[C@H](c2ccc(O)cc2)NC(=O)[C@@H](Cc2c(Br)[nH]c3ccccc23)N(C)C(=O)[C@H](C)NC(=O)[C@@H](C)C1	0.0894 µM	0.887 µM		2.27 µM	6.01 µM	0.661 µM and 0.0703 µM	0.95 µM and 3.11 µM	0.0568 µM		0.0228 µM	< 0.0132 µM		0.43 µM	0.0329 µM	0.705 µM and 5.15 µM	0.488 µM	0.0268 µM	0.0969 µM		0.0232 µM
C=C(C=O)C1CC(=O)C(C(=O)OC)[C@@H]2O[C@@](C)(CC2=O)C[C@@H]2OC(=O)[C@]3(O[C@@H]23)[C@@H](C(=O)OC)C1 (stereo partly drawn)		> 100 µM	> 100 µM	30.8 µM	38.5 µM	> 100 µM	92.4 µM	> 100 µM	> 100 µM		17.2 µM	28.9 µM	14.4 µM	14.7 µM	33.6 µM	16.2 µM	24.9 µM	30 µM	33.7 µM	38.3 µM
CCOC(=O)c1sc(-c2ccc(OS(=O)(=O)c3cccs3)c(C=O)c2)nc1C	5.88 µM	3.9 µM	6.78 µM		2.13 µM	4.93 µM		2.95 µM	5.02 µM	2.06 µM	2.01 µM	2.43 µM		0.732 µM	2.15 µM	0.561 µM	1.88 µM		1.21 µM	1.37 µM
O=C(c1cc(O)ccc1O)c1ccccc1C(Cl)(Cl)Cl	> 100 µM	> 100 µM		> 100 µM	> 100 µM	> 100 µM	> 100 µM	> 100 µM							> 100 µM					
CC(=O)NS(=O)(=O)c1ccc(NC(=O)COC(=O)c2cccc3c(=O)c4ccccc4[nH]c23)cc1	> 100 µM	> 100 µM			> 100 µM	> 100 µM		> 100 µM							> 100 µM					
